Experiment [1] relates to collagen-induced arthritis. As to the kind of experiment: Collagen-induced arthritis preventing effect. The experiment is classed as in vivo, mouse. The note with it: mice, intraperitoneal 2 mg/kg or 4 mg/kg, 3 times/week, 18 times/6 weeks; FIGS. 2(A), 2(B). As to the method:
B) Collagen-induced Arthritis Preventing Effect
Type II collagen was emulsified together with an equivalent volume of Freund's complete adjuvant to prepare 1.5 mg/ml of administration solution. This was intradermally inoculated to the radicular portion of mouse tail in an amount of 0.1 ml (150 μg/mouse) to sensitize the mouse. After 3 weeks, 0.1 ml of type II collagen emulsified in the same operational manner as described was intraperitoneally administered to mouse (150 μg/mouse) to effect booster immunization to induce arthritis.
6 Animals/group of mice were intraperitoneally administered with DHM2EQ and DHM3EQ in a dosage of 2 mg/kg or 4 mg/kg 3 times/week from the day of initial immunization in a ratio of 0.1 ml/10 g of the bodyweight, in total 18 times/6 weeks. The control group (6 animals/group) was administered with 0.5% CMC solution in the same schedule as described above and to provide normal group (4 animals/group) in which no collagen arthritis was induced. The effect of inhibiting collagen-induced arthritis was evaluated by degrees of the flare, swelling and stiffening of anterior limb and posterior limb in scores of 0 to 4 (the maximum score of total for 4 limbs was 16).

For experiment [2], the system named is NF-κB. The experiment can be described thus: NF-κB production inhibitory activity, luciferase reporter gene assay. The class given is cell-based. The note with it: 3×κBTK-Luc reporter, 2 h preincubation, TNF-α (20 ng/ml) for 6 hours; FIGS. 1(A), 1(B). As to the method: A) NF-κB Production Inhibitory Activity
The NF-κB production inhibitory activity was measured by luciferase reporter gene assay as shown below.
[Luciferase Reporter Gene Assay]
A reporter using luciferase DNA was prepared and the NF-κB production inhibitory activity was measured by use of promoter/reporter assay.
As the plasmid for luciferase assay, 3×κBTK-Luc (endowed by Dr. Junichiro INOUE of The Institute of Medical Science, The University of Tokyo) obtained by coupling luciferase gene derived from lampyrid to 3×κB derived from Igκ gene and HSV-TK promoter was used. Further, for the β-galactosidase assay, a plasmid obtained by coupling β-galactosidase gene to β-actin promoter (endowed by Dr. Junichiro INOUE of The Institute of Medical Science, The University of Tokyo) was used.
2) Transfection and Luciferase Assay
Transfection was performed by a DEAE-dextran method. […]
For 10 μl of the sample, 100 μl of a luminescent substrate solution (Tricine (20 mM), (MgCO3).4Mg(OH)2.5H2O (1.07 mM), MgSO4 (2.67 mM), EDTA (0.1 mM), DTT (33.3 mM), Coenzyme A (270 μM), luciferin (470 μM), and ATP (530 μM)) was added and amount of luminescence was quantitated by use of Lumat LB9501 (Berthold: Bad Wildbad, Germany). Further, the measured amounts were corrected by β-galactosidase assay to obtain the value of luciferase activity. […]
For orientation: Reporter assays use an easily measured gene product as a stand-in for the process of interest.

Take `O=C(NC1=CC(=O)C2OC2C1O)c1ccccc1O` (stereo not shown) [DHM2EQ, 5,6-epoxy-4-hydroxy-3-salicyloylamino-2-cyclohexenone]: the “inhibition of collagen-induced arthritis (score of flare, swelling, stiffening of 4 limbs)” value in experiment [1] was “inhibited collagen-induced arthritis”. In addition, the “concentration at which NF-κB activity was inhibited” value in experiment [2] was at least 1 µg/mL.

On to `O=C(NC1=CC(O)C2OC2C1=O)c1ccccc1O` (stereo not shown) [DHM3EQ, 5,6-epoxy-4-hydroxy-2-salicyloylamino-2-cyclohexenone], for which the “inhibition of collagen-induced arthritis (score of flare, swelling, stiffening of 4 limbs)” value in experiment [1] is on record as “inhibited collagen-induced arthritis”. The “concentration at which NF-κB activity was inhibited” value in experiment [2] is 10 µg/mL.
